Reference: patent US20020137929A1, “1 - (3-heterocyclylphenyl) isothiourea, -isourea, -guanidine and -amidine herbicidal agents” (Intellectual Property Department, BASF Aktiengesellschaft, priority 1998, published 2002)

Tests used:
CYPIR (Rice Flatsedge) = test: Preemergence weed control under flooded paddy conditions; format: in vivo, Cyperus iria; details: rated 3-4 weeks after treatment
In short: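 Visual injury scored 0-9 against control three to four weeks post-treatment, greenhouse-grown. Application: acetone/water (50/50) solutions dosed directly into flood water (1.5-3 cm over silt loam, planted top 0.5 cm), roughly 0.0313 to 0.500 kg/ha active ingredient.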

[1] = tested on: SAGPY (Arrowhead (Pygmaea)); test: as above; format: in vivo, Sagittaria pygmaea; details: rated 3-4 weeks after treatment
In short: (§1)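 Values are visual 0-9 scores against a control for a preemergence application into paddy flood water at about 0.0313 to 0.500 kg/ha. Greenhouse duration was three to four weeks.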

ECHCG (Barnyardgrass) = test: Postemergence herbicidal evaluation; format: in vivo, Echinochloa crus-galli
In short: (§2)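 Scores (0–9) reflect plant stand, vigor, malformation, size, chlorosis and general appearance relative to control, read 4 to 5 weeks after treatment and averaged where tests were repeated. Application: about 0.0156–0.500 kg/ha sprayed at 40 psi onto two-week seedlings.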

MOOVA (Monochoria) = test: Preemergence weed control under flooded paddy conditions; format: in vivo, Monochoria vaginalis; details: rated 3-4 weeks after treatment
In short: as §1

CYPSE (Flatsedge) = test: Postemergence weed control under flooded paddy conditions; format: in vivo, Cyperus serotinus; details: postemergence weeds, 3-4 weeks after treatment
In short: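 Herbicidal effect is judged by eye on a 0–9 scale versus control, 3–4 weeks after dosing. Dosing is into flood water kept 1.5–3 cm over the soil, at about 0.0313–0.500 kg/ha in aqueous/acetone 50/50 v/v, on 3–5 cm weeds and 1.5–2.5-leaf rice seedlings.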

[2] = tested on: CHEAL (Lambsquarters, Common); test: Postemergence herbicidal evaluation; format: in vivo, Chenopodium album
In short: as §2

CASOB (Sicklepod) = test: Postemergence herbicidal evaluation; format: in vivo, Cassia obtusifolia
In short: as §2

ORYSAT (Rice, Tebonnet) = test: Postemergence herbicidal evaluation; format: in vivo, Oryza sativa, (L.) Tebonnet
In short: as §2

2-{{2-Chloro-5-[3,6-dihydro-3-methyl-2,6-dioxo-4-(trifluoromethyl)-1(2H)-pyrimidinyl]-4-fluoro-phenyl}imino}-4-oxo-3,5-thiazolidenediacetic acid, 3-ethyl (2-propynyl) ester, (2:1) mixture with di-2-propynyl ester [Compound 58]
4.0: Herbicidal rating SAGPY ([1]; 0.2500 kg/ha)
2.0: Herbicidal rating CYPIR (CYPIR (Rice Flatsedge); 0.1250 kg/ha) | Postemergence herbicidal rating CASOB (CASOB (Sicklepod); Rate 0.0315 kg/ha)
9.0: Postemergence herbicidal rating ECHCG (ECHCG (Barnyardgrass); Rate 0.0630 kg/ha) | Herbicidal rating MOOVA (MOOVA (Monochoria); 0.2500 kg/ha) | Postemergence herbicidal rating CHEAL ([2]; Rate 0.0158 kg/ha) | Postemergence herbicidal rating CHEAL ([2]; Rate 0.0315 kg/ha) | Postemergence herbicidal rating CHEAL ([2]; Rate 0.0630 kg/ha)
3.0: Herbicidal rating CYPIR (CYPIR (Rice Flatsedge); 0.2500 kg/ha) | Herbicidal rating MOOVA (MOOVA (Monochoria); 0.1250 kg/ha) | Postemergence herbicidal rating CASOB (CASOB (Sicklepod); Rate 0.0630 kg/ha)
7.0: Postemergence herbicidal rating ECHCG (ECHCG (Barnyardgrass); Rate 0.0158 kg/ha) | Postemergence herbicidal rating ECHCG (ECHCG (Barnyardgrass); Rate 0.0315 kg/ha)
5.0: Herbicidal rating CYPSE (CYPSE (Flatsedge); rate 0.0313 kg/ha) | Herbicidal rating CYPSE (CYPSE (Flatsedge); rate 0.0625 kg/ha) | Herbicidal rating CYPSE (CYPSE (Flatsedge); rate 0.1250 kg/ha) | Herbicidal rating CYPSE (CYPSE (Flatsedge); rate 0.2500 kg/ha)
6.0: Postemergence herbicidal rating ORYSAT (ORYSAT (Rice, Tebonnet); Rate 0.0630 kg/ha)
0.0: CYPIR herbicidal effect rating (CYPIR (Rice Flatsedge); 0.0313 kg/ha) | Herbicidal rating CYPIR (CYPIR (Rice Flatsedge); 0.0625 kg/ha) | SAGPY herbicidal effect rating ([1]; 0.0313 kg/ha) | Herbicidal rating SAGPY ([1]; 0.0625 kg/ha) | Herbicidal rating SAGPY ([1]; 0.1250 kg/ha) | MOOVA herbicidal effect rating (MOOVA (Monochoria); 0.0313 kg/ha) | Herbicidal rating MOOVA (MOOVA (Monochoria); 0.0625 kg/ha) | Postemergence herbicidal rating CASOB (CASOB (Sicklepod); Rate 0.0158 kg/ha)
5.5: Postemergence herbicidal rating ORYSAT (ORYSAT (Rice, Tebonnet); Rate 0.0158 kg/ha) | Postemergence herbicidal rating ORYSAT (ORYSAT (Rice, Tebonnet); Rate 0.0315 kg/ha)
